From patent publication US20070207544A1, “STROMA-FREE, SERUM-FREE, AND CHEMICALLY DEFINED MEDIUM AND METHOD FOR EX VIVO MONONUCLEAR CELL EXPANSION USING THE SAME” (FOOD INDUSTRY RESEARCH & DEVELOPMENT INSTITUTE, priority 2005, published 2007) come the findings set out here.

The test system of one experiment is white blood cells (WBCs). As to the kind of experiment: Ex vivo expansion of UCB mononuclear cells: WBC growth (cell density). The class given is cell-based, human. As to conditions: for effect of cytokine on WBC growth: sign of coefficient in Eq. (4), IMDM + BIT; for effect of serum substitute on WBC growth: sign of coefficient in Eq. (2), IMDM + seven cytokines. On the procedure: (§1) The term UCB was harvested with a standard 250-ml blood bag (Terumo, Shibuya-ku, Tokyo, Japan) with the informed consent and processed within 24 hrs. Buffy coat cells were obtained from UCB by centrifugation (700×g, 20 mins), and were diluted with an equal volume of wash buffer (Dulbecco's phosphate buffered saline, D-PBS, containing 2 mM EDTA, Sigma, St. Louis, Mo.). Then the cells were layered onto Ficoll-Paque solution (ρ=1.077 g/ml, Amersham Biosciences, Uppsala, Sweden) and centrifuged to deplete red blood cells, platelets and plasma (700×g, 40 mins). MNCs were collected, and washed with D-PBS twice. Recovery rate, viability, percentage of CD34^+ fraction, colony-forming cells (CFCs), and long-term culture-initiating cells (LTC-ICs) were determined as day 0 for control. For expansion, MNC were seeded at a concentration of 5×10^5 cells/ml in 24-well plates with variable serum substitutes and cytokines according to experiment design (all experiments were repeated at least six times).
(§2) Two-level factorial design followed the method of steepest ascent was carried out to find the optimal concentrations of serum substitutes and cytokines for CD34^+ cells expansion. Fractional and full factorial design data were regressed by SPSS software to obtain the first order polynomial. Its statistic significance was determined by an F-test and the significance of the regression coefficients was analyzed by a t-test. The polynomial takes the form of White blood cells (WBCs)/ml or CD34^+ cells/ml=α0+αixi (1)
(§3) As has been extensively reviewed [Sandstrom C E, et al. Biotechnol Bioeng. 1994; 43:706-733; Mobest D, et al. Biotechnol Bioeng. 1998; 60:341-347; Bruyn C D, et al. Cytotherapy. 2003; 5:153-160] and based on the inventors' previous experience [Lebkowski J S, et al. Stem Cells. 1995; 13:607-612; Audet J, et al. Biotechnol Bioeng. 2002; 80:393-404; Yao C L, et al. Enzyme Micro Technol. 2003; 33:343-352], four kinds of compounds that are frequently used as serum substitutes were selected—bovine serum albumin (BSA), insulin, transferring (TF), and 2-mercaptoethanol (2-ME). The 2^4 full factorial design was adopted to determine which serum substitutes were required for CD34^+ cell expansion in the MNC culture system. The 2^4 full factorial design could efficiently test four compounds with 16 trials and provide completely degrees of freedom to obtain the coefficients. […] 2003; 33:343-352]; the initial cell density was 5×10^5 MNCs/ml and the cells were analyzed after 7-day culture.
(§4) The 2^10-6 fractional factorial design (16 runs simultaneously) was adopted to identify which cytokines could help CD34^+ cell expansion in the MNC culture system. This design could efficiently test ten compounds with 16 trials and provide sufficient degrees of freedom to obtain the coefficients.

Another experiment relates to CD34^+ cells. As to the kind of experiment: Ex vivo expansion of UCB mononuclear cells: CD34^+ cell growth by flow cytometry. The class given is cell-based, human. As to conditions: for effect of serum substitute on CD34^+ cell growth: sign of coefficient in Eq. (3), IMDM + seven cytokines. The protocol: as §1, §2, §3, §4

“HGF: recombinant human hepatocyte growth factor; x10 in Eq. (4), (5)”: in the experiment on white blood cells (WBCs), the “effect of cytokine on WBC growth” value is on record as “inhibit”.

Regarding `OCCS` [2-ME, 2-mercaptoethanol, reference compound], the “effect of serum substitute on WBC growth” value in the experiment with white blood cells (WBCs) is “inhibit”. Moreover, in the experiment on CD34^+ cells, the “effect of serum substitute on CD34^+ cell growth” value was “inhibit”.

Regarding “insulin: insulin, serum substitute; x2 in Eq. (2), (3)”, in the experiment with white blood cells (WBCs), the “effect of serum substitute on WBC growth” value is on record as “enhance”. For the same molecule, in the experiment with CD34^+ cells, the “effect of serum substitute on CD34^+ cell growth” value was “enhance”.

As to “TF: transferrin, serum substitute; x3 in Eq. (2), (3)”, the “effect of serum substitute on WBC growth” value in the experiment with white blood cells (WBCs) is recorded as “enhance”. In the experiment on CD34^+ cells, the “effect of serum substitute on CD34^+ cell growth” value is “enhance”.

“IL-6: recombinant human interleukin-6; x5 in Eq. (4), (5)”: the “effect of cytokine on WBC growth” value in the experiment on white blood cells (WBCs) was “inhibit”. Moreover, the “effect of cytokine on CD34^+ cell growth” value with CD34^+ cells (sign of coefficient in Eq. (5), IMDM + BIT) is “positive effect”.
